Results reported in article PMC9030223, “MBP-11901 Inhibits Tumor Growth of Hepatocellular Carcinoma through Multitargeted Inhibition of Receptor Tyrosine Kinases” (Cancers, 2022).
Read-outs that look alike come from different tables or passages of the source.

Key:
[1] = biological target: T1, FLT3(K663Q) (Homo sapiens, UniProt P36888, K663Q); assay: KINOMEscan competition binding; conditions: 10000 nM; lower = stronger binding; read-out: % Control
T1 construct: purchased Eurofins DiscoverX Corporation
Method: (§1) The profiling of MBP-11901 against a panel of 468 kinases was performed by DiscoverX using KINOMEscan technology, an active-site-dependent competition-binding assay (Eurofins DiscoverX Corporation, San Diego, CA, USA). Binding constants (Kd) were calculated by DiscoverX using KdELECT technology, a widely used assay for comparing selectivity across the kinome. The DiscoverX platform reports the thermodynamic Kd to facilitate direct comparison of inhibitor affinity across the kinome, independent of ATP concentration.

[2] = biological target: T2, FLT3(N841I) (Homo sapiens, UniProt P36888, N841I); assay: KINOMEscan competition binding; conditions: 10000 nM; lower = stronger binding; read-out: % Control
T2 construct: purchased Eurofins DiscoverX Corporation
Method: as §1

[3] = tested on: HepG2 xenograft tumor; conditions: for Tumor growth inhibition rate (%): 42 d (calculated on day 41); for Body weight loss rate (%): day 41
[4] = Pharmacokinetics in mice (data not shown); format: in vivo
[5] = tested on: HepG2 cells; assay: JC-1 mitochondrial membrane potential assay; format: cell-based, human
Method: Alterations in MMP were investigated utilizing the cationic dye tetraethylbenzimidazolylcarbocyanine iodide (JC-1) according to the manufacturer’s instructions (Cat. ab113850, Abcam, Cambridge, MA, USA). HepG2 cells were seeded in a 35 mm^2 dish at a density of 7.5 × 10^5 cells/dish and incubated for 24 h. Cells were treated with MBP-11901 for 2 h and media was changed with fresh one. Briefly, after 2 d incubation, cells were washed with 1× dilution buffer, and incubated with 1 μM JC-1 in 1× dilution buffer for 30 min at 37 °C. Cells were then washed 3 times with 1× dilution buffer. Fluorescence was measured under a fluorescence microscope (ECLIPSE Ti, Nikon, Melville, NY, USA) using an excitation filter of 530 nm ± 15 nm and an emission filter of 590 nm ± 17.5 nm.

[6] = tested on: Hep3B xenograft tumor; assay: Hep3B subcutaneous xenograft; format: in vivo, mouse; conditions: once every 2 d, 12 administrations
Excerpt: We further verified the effectiveness of MBP-11901 by constructing a mouse model in which Hep3B and Huh-7 were subcutaneously transplanted in addition to the human liver cancer cell line HepG2. In the case of Hep3B, the administration was initiated at a tumor volume of about 300 mm^3, once every 2 d, and the experiment was terminated after a total of 12 administrations (Figure S5). […] In contrast, tumors had completely disappeared in 1 out of 6 animals in the MBP-11901 group; 1 had only a trace of a tumor measuring approximately 30 mm^3, whereas the average tumor volume in the 6 animals was approximately 100 mm^3. […] Unlike Nexavar®, there were no side-effects relating to drug resistance or rapid tumor growth.

[7] = tested on: cleaved PARP and active caspase-3 in HepG2 cells; assay: Western blot of apoptosis markers; format: cell-based, human; conditions: HepG2, time- and dose-dependent
Method: HepG2 cells were seeded in a 60 mm^2 culture dish at a density of 1.5 × 10^6 cells/dish and incubated for 24 h. Cells were treated with MBP-11901 for 24 h. Cells were harvested and protein extraction and Western blotting methods were performed as previously described. Membranes were incubated using the following diluted primary antibodies; PARP (1:1000 dilution), caspase-3 (1:1000 dilution), cleaved caspase-3 (1:1000 dilution), pFLT3 (1:500 dilution), Ras (1:1000 dilution), pc-Raf (1:1000 dilution), pMEK1/2 (1:1000 dilution), pERK1/2 (1:1000 dilution), pAKT (1:1000 dilution), pmTOR (1:1000 dilution), pVEGFR2 (1:1000 dilution), pPDGFR β (1:2000 dilution), and β-actin (1:1000 dilution) in Tris-HCl-based buffer containing 0.2% Tween-20 (T1027, Biosesang, Seongnam, Korea) (TBS-T; pH 7.5). Membranes were then incubated with horseradish-conjugated secondary antibodies (1:5000, Cell Signaling Technologies, Beverly, MA, USA) for 1 h at 25 °C. After washing with TBS-T, immunoreactive bands were visualized using the chemiluminescence western imaging system (Supernova-Q1800TM, Centronics, Daejeon, Korea). Band intensities were measured using ImageJ (Version 1.50i; US National Institutes of Health, Bethesda, MD, USA) and were normalized to β-actin.

NCC(N)C(=O)Nc1ccc(-c2nc3ccccc3s2)cc1 (centres unmarked) [MBP-11901]
remaining binding at 10 µM [1]: 7.5%
remaining binding at 10 µM [2]: 20%
Toxic deaths/total ([3]; 82 mg/kg oral 1T/2D, 42 d): 0/6
Tumor growth inhibition rate (%) ([3]; 82 mg/kg oral 1T/2D): 99.82 ± 0.33%
Body weight loss rate (%) ([3]; 82 mg/kg oral 1T/2D): 1.85 ± 3.70%
Toxic deaths/total ([3]; 82 mg/kg oral 1T/3D, 42 d): 0/6
Tumor growth inhibition rate (%) ([3]; 82 mg/kg oral 1T/3D): 99.51 ± 0.81%
Body weight loss rate (%) ([3]; 82 mg/kg oral 1T/3D): −0.43 ± 3.76 %
Toxic deaths/total ([3]; 82 mg/kg oral 1T/4D, 42 d): 0/6
Tumor growth inhibition rate (%) ([3]; 82 mg/kg oral 1T/4D): 99.48 ± 0.60%
Body weight loss rate (%) ([3]; 82 mg/kg oral 1T/4D): −4.29 ± 0.59 %
histological analysis of the liver and kidney ([3]; 42 d): no apparent toxicity
animals in which tumors had disappeared, out of a total of 6 ([3]; all MBP-11901 groups, after 42 d): 3–4
GPT values ([3]; serum, MBP-11901 1T/3D and 1T/4D groups): significantly outside the normal range
bioavailability [4]: significantly high
half-life [4]: long
mitochondrial potential (JC-1) [5]: decrease in mitochondrial potential
animals in which tumors had completely disappeared [6]: 1 out of 6
average tumor volume ([6]; start about 300 mm^3, saline approx. 1400 mm^3): approximately 100 mm^3
levels of cleaved PARP and active caspase-3 [7]: high levels
